Patent US6794492B2, “Perfluoroalkyl compounds and their methods of use and manufacture” (Clemson University, priority 2000, dated 2004)

Legend:
CNS tumor cell line = test: NCI in vitro anti-tumor screen, three-cell line evaluation (SRB protein assay), CNS; type: cell-based, human; settings: sample concentration 5.00 E-05 Molar, 48 hour continuous drug exposure
human tumor cell lines = test: NCI three-cell line evaluation, overall activity call; type: cell-based; settings: three-cell line (lung, breast, CNS); 5.00 E-05 Molar
breast tumor cell line = test: NCI in vitro anti-tumor screen, three-cell line evaluation (SRB protein assay), breast; type: cell-based, human; settings: sample concentration 5.00 E-05 Molar, 48 hour continuous drug exposure
Experimental: The testing below was conducted by the United States Public Health Service, Department of Health and Human Services. […] A 48 hour continuous drug exposure protocol is used, and a sulforhodamine B (SRB) protein assay is used to estimate cell viability or growth.
(§1) Data for the compound shown in the attached FIG. 3 which was tested according to the National Cancer Institutes Developmental Theraputics Program (dose response curves) is shown in attached FIG. 13.

lung tumor cell line = test: NCI in vitro anti-tumor screen, three-cell line evaluation (SRB protein assay), lung; type: cell-based, human; settings: sample concentration 5.00 E-05 Molar, 48 hour continuous drug exposure
Experimental: The testing below was conducted by the United States Public Health Service, Department of Health and Human Services. The National Cancer Institute (NCl) in vitro anti-tumor screening test consists of about 60 human tumor cell lines against which compounds are tested at a minimum of 5 concentrations at 10 fold dilutions. A 48 hour continuous drug exposure protocol is used, and a sulforhodamine B (SRB) protein assay is used to estimate cell viability or growth.
as §1

CC[C@H](C)[C@H](NC(=O)[C@H](Cc1ccc(O)cc1)NCC(F)(F)F)C(=O)OC(C)(C)C [S712619]
Growth Percentages CNS (CNS tumor cell line): −75% | activity (human tumor cell lines): active | Growth Percentages breast (breast tumor cell line): −57% | Growth Percentages lung (lung tumor cell line): −77%
